Laboratory results from patent US10059694B2, “2-aminopyrimidine compound and pharmaceutical composition and use thereof” (Shanghai Institute of Materia Medica, Chinese Academy of …, priority 2014, dated 2018).
Where two headings read alike, the source gives them in different places.

Key:
[1] = target: T1, IGF-1R (Homo sapiens, UniProt P08069); experiment: kinase inhibitory activity test (ELISA), IGF-1R; type: biochemical; conditions: ATP 5 μM, 1 hour at 37° C.
T1 construct: purchased Millipore
Protocol: (§1) The enzyme substrate poly (glutamic acid, tyrosine)4:1 (Sigma) was diluted with potassium-free PBS (10 mM sodium phosphate buffer, 150 mM NaCl, pH 7.2-7.4) to 20 μg/mL, plate coated with 125 μL/well, reacted for 12-16 hours at 37° C. After the liquid in the wells was discarded, the plates were washed three times with 200 μL/well of T-PBS (PBS containing 0.1% Tween-20), and each time for 5 minutes, and then dried for 1-2 hours in an oven at 37° C. 50 μL of ATP solution diluted with reaction buffer (50 mM HEPES pH 7.4, 50 mM MgCl2, 5 mM MnCl2, 0.2 mM Na3VO4, 1 mM DTT) was added into each well and the final concentration was 5 μM. The compounds were diluted with 1% DMSO to suitable concentrations and were added at 10 μL/well. Then different types of tyrosine kinase proteins (including EGFR^wt, EGFR^T790M/L858R and IGF-1R, purchased from Millipore) diluted with 40 μL of reaction buffer were added. The above reaction system was reacted for 1 hour at 37° C. shaking table (100 rpm). Control wells with no enzyme and control wells with DMSO solvent were set in each experiment. After the reaction was completed, the plates were washed three times with T-PBS. The anti-phosphotyrosine primary antibody PY99 (Santa Cruz) was added at 100 μL/well and the antibody was diluted with T-PBS containing BSA 5 mg/mL by 1:1000. The mixture was reacted for 0.5 h at 37° C. shaking table, the plates were washed three times with T-PBS. The secondary antibody which was horseradish peroxidase-labeled goat anti-mouse IgG was added at 100 μL/well (the antibody was diluted with T-PBS containing BSA 5 mg/mL by 1:2000). The mixture was reacted for 0.5 h at 37° C. shaking table, the plates were washed three times with T-PBS. 2 l/mL of OPD coloring solution was added at 100 μL/well (diluted with 0.1 M citric acid-sodium citrate buffer (pH=5.4) containing 0.03% H2O2) and dark reacted for 1 to 10 minutes at 25° C. 2 M H2SO4 was added at 50 μL/well to terminate the reaction. Reading was carried out with an adjustable wavelength microplate enzyme-labeled instrument SPECTRA MAX 190 at 490 nm wavelength.
(§2) The IC50 value was calculated by the four-parameter fitting of the suppression curve.

[2] = tested on: human non-small cell lung cancer NCI-H1975 cell line; experiment: SRB proliferation assay, NCI-H1975 cells; type: cell-based; conditions: read-out: IC50 NCI-H1975
Protocol: (§3) Cell lines: human epidermal carcinoma A431 cell line and human non-small cell lung cancer NCI-H1975 cell line was purchased from the American Standard Biology Collection Center (ATCC).
Methods: sulforhodamine B (SRB) method, which was as follows: certain number of different tumor cells in logarithmic growth phase were inoculated on 96-well culture plates. After cultured for 24 h to cell adherence, different concentrations of the test compounds of the invention were added. Each concentration was provided with three wells, and a corresponding concentration of DMSO solvent control and a cell-free zeroing well were set. After the cells were treated with the medicine for 72 h, the culture medium was discarded and 100 μL of 10% pre-cooled trichloroacetic acid solution was added to fix the cells. After placed for 1 h at 4° C., it was washed for 5 times with distilled water and dried naturally. Then 100 μL SRB (4 mg/mL) (Sigma) solution was added and stained for 15 min at room temperature. The staining solution was discarded and washed for 5 times with 1% glacial acetic acid and dried. Finally, 150 μL of 10 mM Tris solution (pH 10.5) was added and the OD value was measured at 515 nm with adjustable wavelength microplate enzyme-labeled instrument (VERSAmax™, Molecular Device Corporation, Sunnyvale, Calif., USA). […] Based on the inhibitory effect of the 2-aminopyrimidine compounds on the growth of these cells, the half maximal inhibitory concentration (IC50) values were calculated, as shown in Table 2.

[3] = target: T2, EGFR^T790M/L858R (Homo sapiens, UniProt P00533, L858R/T790M); experiment: kinase inhibitory activity test (ELISA), EGFR^T790M/L858R; type: biochemical; conditions: for IC50: ELISA, ATP 5 μM, 1 hour at 37° C.; for kinase inhibitory activity (in words): summary of Table 1
T2 construct: purchased Millipore
T2 sequence (P00533 25-1210 T790M/L858R): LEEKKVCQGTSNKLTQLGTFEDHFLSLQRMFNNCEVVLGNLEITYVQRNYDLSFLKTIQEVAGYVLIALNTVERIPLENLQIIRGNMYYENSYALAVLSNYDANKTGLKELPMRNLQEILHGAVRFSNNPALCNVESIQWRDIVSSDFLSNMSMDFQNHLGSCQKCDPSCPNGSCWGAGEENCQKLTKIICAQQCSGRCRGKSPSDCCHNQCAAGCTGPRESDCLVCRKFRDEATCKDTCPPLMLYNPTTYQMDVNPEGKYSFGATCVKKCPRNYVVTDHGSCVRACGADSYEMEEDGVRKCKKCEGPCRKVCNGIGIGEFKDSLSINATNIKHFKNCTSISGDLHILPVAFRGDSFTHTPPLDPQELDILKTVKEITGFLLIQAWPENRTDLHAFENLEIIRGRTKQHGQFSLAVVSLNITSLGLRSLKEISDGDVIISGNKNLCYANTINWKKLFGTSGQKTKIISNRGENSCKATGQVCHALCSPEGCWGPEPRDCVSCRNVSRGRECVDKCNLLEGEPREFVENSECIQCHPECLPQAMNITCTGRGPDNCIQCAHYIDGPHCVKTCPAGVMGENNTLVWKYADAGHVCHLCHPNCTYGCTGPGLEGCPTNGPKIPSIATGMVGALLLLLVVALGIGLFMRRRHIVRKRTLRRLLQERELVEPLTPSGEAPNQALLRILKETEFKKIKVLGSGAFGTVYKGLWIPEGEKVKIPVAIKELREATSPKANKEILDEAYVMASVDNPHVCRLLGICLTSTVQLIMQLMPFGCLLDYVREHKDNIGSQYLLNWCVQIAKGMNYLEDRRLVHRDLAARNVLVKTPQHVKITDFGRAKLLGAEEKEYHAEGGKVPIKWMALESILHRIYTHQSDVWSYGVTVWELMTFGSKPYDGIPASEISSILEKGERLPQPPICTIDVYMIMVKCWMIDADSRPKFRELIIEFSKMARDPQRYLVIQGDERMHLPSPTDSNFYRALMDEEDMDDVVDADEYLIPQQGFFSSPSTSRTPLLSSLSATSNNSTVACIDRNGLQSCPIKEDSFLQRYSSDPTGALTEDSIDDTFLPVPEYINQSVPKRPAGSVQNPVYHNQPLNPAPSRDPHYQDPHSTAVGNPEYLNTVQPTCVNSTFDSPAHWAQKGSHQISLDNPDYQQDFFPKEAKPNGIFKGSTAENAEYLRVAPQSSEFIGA
Protocol: as §1, with “Then different types of tyrosine kinase proteins (including EGFR^wt, EGFR^T790M/L858R and IGF-1R, purchased from Millipore) diluted with 40 μL of reaction buffer were added.” left out
as §2

[4] = tested on: human epidermal carcinoma A431 cell line; experiment: SRB proliferation assay, A431 cells; type: cell-based; conditions: read-out: IC50 A431
Protocol: as §3
Methods: sulforhodamine B (SRB) method, which was as follows: certain number of different tumor cells in logarithmic growth phase were inoculated on 96-well culture plates. After cultured for 24 h to cell adherence, different concentrations of the test compounds of the invention were added. Each concentration was provided with three wells, and a corresponding concentration of DMSO solvent control and a cell-free zeroing well were set. After the cells were treated with the medicine for 72 h, the culture medium was discarded and 100 μL of 10% pre-cooled trichloroacetic acid solution was added to fix the cells. After placed for 1 h at 4° C., it was washed for 5 times with distilled water and dried naturally. Then 100 μL SRB (4 mg/mL) (Sigma) solution was added and stained for 15 min at room temperature. The staining solution was discarded and washed for 5 times with 1% glacial acetic acid and dried. Finally, 150 μL of 10 mM Tris solution (pH 10.5) was added and the OD value was measured at 515 nm with adjustable wavelength microplate enzyme-labeled instrument (VERSAmax™, Molecular Device Corporation, Sunnyvale, Calif., USA).

[5] = target: T3, EGFR^wt (Homo sapiens, UniProt P00533); experiment: kinase inhibitory activity test (ELISA), EGFR^WT; type: biochemical; conditions: ATP 5 μM, 1 hour at 37° C.
T3 construct: purchased Millipore
T3 sequence (P00533 25-1210): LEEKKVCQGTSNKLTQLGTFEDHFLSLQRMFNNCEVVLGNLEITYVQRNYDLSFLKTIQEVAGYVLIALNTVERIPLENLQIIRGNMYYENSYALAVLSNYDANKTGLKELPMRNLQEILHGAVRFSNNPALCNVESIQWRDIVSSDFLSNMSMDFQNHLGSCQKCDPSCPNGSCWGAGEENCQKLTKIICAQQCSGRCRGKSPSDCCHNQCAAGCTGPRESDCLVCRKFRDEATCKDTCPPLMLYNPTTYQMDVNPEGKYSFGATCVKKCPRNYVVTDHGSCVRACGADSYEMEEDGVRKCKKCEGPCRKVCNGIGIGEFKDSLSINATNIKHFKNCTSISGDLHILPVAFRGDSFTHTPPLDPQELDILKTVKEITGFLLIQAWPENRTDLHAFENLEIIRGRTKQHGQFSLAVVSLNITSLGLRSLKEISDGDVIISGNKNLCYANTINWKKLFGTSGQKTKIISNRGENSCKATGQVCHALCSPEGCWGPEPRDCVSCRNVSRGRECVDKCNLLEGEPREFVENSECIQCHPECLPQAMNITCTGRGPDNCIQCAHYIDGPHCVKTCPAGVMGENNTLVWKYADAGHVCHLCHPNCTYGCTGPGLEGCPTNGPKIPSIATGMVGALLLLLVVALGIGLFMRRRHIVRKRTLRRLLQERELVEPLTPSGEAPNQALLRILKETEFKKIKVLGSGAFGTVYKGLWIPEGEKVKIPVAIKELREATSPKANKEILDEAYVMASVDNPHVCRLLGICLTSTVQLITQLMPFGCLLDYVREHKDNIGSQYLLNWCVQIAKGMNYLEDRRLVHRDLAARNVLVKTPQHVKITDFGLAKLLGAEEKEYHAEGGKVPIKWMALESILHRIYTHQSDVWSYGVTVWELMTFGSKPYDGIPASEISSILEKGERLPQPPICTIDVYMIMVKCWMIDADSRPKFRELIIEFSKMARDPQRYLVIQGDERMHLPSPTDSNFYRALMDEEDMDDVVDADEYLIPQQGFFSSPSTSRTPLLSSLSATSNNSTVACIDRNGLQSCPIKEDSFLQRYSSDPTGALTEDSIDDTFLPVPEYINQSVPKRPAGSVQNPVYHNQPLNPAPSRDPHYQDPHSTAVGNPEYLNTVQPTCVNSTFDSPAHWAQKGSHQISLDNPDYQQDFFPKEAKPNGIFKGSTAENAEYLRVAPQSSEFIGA
Protocol: as §1, with “Then different types of tyrosine kinase proteins (including EGFR^wt, EGFR^T790M/L858R and IGF-1R, purchased from Millipore) diluted with 40 μL of reaction buffer were added.” left out
as §2

T1 sequence (P08069 31-1367): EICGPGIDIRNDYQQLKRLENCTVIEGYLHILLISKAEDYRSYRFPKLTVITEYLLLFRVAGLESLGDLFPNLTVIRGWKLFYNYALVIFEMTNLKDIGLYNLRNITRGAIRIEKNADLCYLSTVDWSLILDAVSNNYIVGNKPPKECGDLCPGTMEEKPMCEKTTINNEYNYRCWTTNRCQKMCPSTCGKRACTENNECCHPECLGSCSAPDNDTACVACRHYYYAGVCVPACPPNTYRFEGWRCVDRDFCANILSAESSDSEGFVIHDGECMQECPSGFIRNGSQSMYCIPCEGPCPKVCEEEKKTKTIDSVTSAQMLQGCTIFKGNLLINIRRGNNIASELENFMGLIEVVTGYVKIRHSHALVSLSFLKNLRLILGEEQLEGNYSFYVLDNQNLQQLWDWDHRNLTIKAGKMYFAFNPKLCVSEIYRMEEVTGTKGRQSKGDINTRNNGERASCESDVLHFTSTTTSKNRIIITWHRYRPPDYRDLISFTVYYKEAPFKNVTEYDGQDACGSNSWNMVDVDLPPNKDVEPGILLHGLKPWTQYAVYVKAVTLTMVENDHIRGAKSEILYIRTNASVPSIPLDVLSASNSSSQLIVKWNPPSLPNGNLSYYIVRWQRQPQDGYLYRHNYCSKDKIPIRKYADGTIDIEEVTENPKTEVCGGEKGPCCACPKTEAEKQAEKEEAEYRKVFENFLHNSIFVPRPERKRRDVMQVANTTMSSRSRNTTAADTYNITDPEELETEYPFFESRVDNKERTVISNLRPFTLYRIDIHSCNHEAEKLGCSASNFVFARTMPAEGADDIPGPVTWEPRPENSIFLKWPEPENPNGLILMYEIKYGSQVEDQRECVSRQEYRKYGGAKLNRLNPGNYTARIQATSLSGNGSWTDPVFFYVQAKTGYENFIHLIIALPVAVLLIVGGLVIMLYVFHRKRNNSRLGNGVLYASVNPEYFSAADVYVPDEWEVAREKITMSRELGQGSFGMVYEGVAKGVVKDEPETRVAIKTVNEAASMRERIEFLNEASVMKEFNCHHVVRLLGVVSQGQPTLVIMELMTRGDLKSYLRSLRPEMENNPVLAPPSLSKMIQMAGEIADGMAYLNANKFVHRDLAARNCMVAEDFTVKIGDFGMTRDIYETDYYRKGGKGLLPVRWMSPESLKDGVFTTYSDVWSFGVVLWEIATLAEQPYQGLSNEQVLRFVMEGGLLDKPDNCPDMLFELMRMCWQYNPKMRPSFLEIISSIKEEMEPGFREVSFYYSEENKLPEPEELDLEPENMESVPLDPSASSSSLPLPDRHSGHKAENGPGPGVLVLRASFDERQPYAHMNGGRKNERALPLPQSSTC

Structure (SMILES) | IC50 [1] [nM] | IC50 ([2]; NCI-H1975, 72 h) [nM] | IC50 [3] [nM] | IC50 ([4]; A-431, 72 h) [nM] | IC50 [5] [nM] | IC50 ([2]; NCI-H1975, SRB, 72 h) [nM] | kinase inhibitory activity (in words) [3] | IC50 ([4]; A-431, SRB, 72 h) [nM]
C=CC(=O)Nc1cc(Nc2nccc(-c3cn(C)c4ccccc34)n2)c(OC)cc1N(C)CCN(C)C [AZD9291, reference compound] | > 1000 |  |  |  |  |  |  | 
COc1ccc(NC(=O)/C=C/CN(C)C)cc1Nc1ncc(Cl)c(Nc2ccc3ccccc3c2)n1 [CCB118563, (E)-N-((3-((5-chloro-4-((naphthalen-2-yl)amino))pyrimidin-2-yl)amino)-4-methoxyphenyl)-4-(dimethylamino)-2-butenamide] | 14.7 | 306 | 18.2 | 1130 | 260 |  |  | 
COc1ccc(NC(=O)/C=C/CN2CCCCC2)cc1Nc1ncc(Cl)c(Nc2ccc3ccccc3c2)n1 [CCB120024, (E)-N-((3-((5-chloro-4-((naphthalen-2-yl)amino))pyrimidin-2-yl)amino)-4-methoxyphenyl)-4-(piperidin-1-yl)-2-butenamide] | 35.4 |  | 1.9 |  | 318 | 319 | potent | 6930
COc1ccc(NC(=O)/C=C/CN2CCOCC2)cc1Nc1ncc(Cl)c(Nc2ccc3ccccc3c2)n1 [CCB120025, (E)-N-((3-((5-chloro-4-((naphthalen-2-yl)amino))pyrimidin-2-yl)amino)-4-methoxyphenyl)-4-(morpholin-1-yl)-2-butenamide] | 132 |  | 11.9 |  | 567 | 895 |  | 
C=CC(=O)Nc1ccc(OC)c(Nc2ncc(Cl)c(Nc3ccc4ccccc4c3)n2)c1 [CCB120027, N-((3-((5-chloro-4-((naphthalen-2-yl)amino))pyrimidin-2-yl)amino)-4-methoxyphenyl)acrylamide] | 263 |  | 2.2 |  | 172 | 403 | potent | > 10000
COc1ccc(NC(=O)/C=C/CN2CCN(C(C)=O)CC2)cc1Nc1ncc(Cl)c(Nc2ccc3ccccc3c2)n1 [CCB120029, (E)-N-((3-((5-chloro-4-((naphthalen-2-yl)amino))pyrimidin-2-yl)amino)-4-methoxyphenyl)-4-(4-acetylpiperazin-1-yl)-2-butenamide] | 99.4 |  | 19.1 |  | 695 | 1050 |  | 
C=CC(=O)Nc1cc(CN(C)CCN(C)C)cc(Nc2ncc(Cl)c(Nc3ccc4ccccc4c3)n2)c1 [CCB120069, N-((3-((5-chloro-4-((naphthalen-2-yl)amino))pyrimidin-2-yl)amino)-5-((N-methyl-N-dimethylaminoethyl)methylamine)phenyl)acrylamide] | 9 |  | 3.9 |  | 132 | 147 | potent | 535
C=CC(=O)Nc1cc(CN(C)C)cc(Nc2ncc(Cl)c(Nc3ccc4ccccc4c3)n2)c1 [CCB120081, N-((3-((5-chloro-4-((naphthalen-2-yl)amino))pyrimidin-2-yl)amino)-5-(dimethylaminomethyl)phenyl)acrylamide] | 85.8 |  | 5.1 |  | 170 | 16 |  | 37
C=CC(=O)Nc1cc(CN2CCN(C)CC2)cc(Nc2ncc(Cl)c(Nc3ccc4ccccc4c3)n2)c1 [CCB120103, N-((3-((5-chloro-4-((naphthalene-2-yl)amino))pyrimidine-2-yl)amino)-5-((4-methylpiperazine-1-yl)methyl)phenyl)acrylamide] | 73.3 |  | 3.1 |  | 102 | 131 |  | 1020
C=CC(=O)Nc1cc(CN2CCCN(C)CC2)cc(Nc2ncc(Cl)c(Nc3ccc4ccccc4c3)n2)c1 [CCB120105, N-((3-((5-chloro-4-((naphthalen-2-yl)amino))pyrimidin-2-yl)amino)-5-((4-methylhomopiperazin-1-yl)methyl)phenyl)acrylamide] | 77.3 |  | 1.2 |  | 137 | 151 |  | 576
C=CC(=O)Nc1cc(CN2CCOCC2)cc(Nc2ncc(Cl)c(Nc3ccc4ccccc4c3)n2)c1 [CCB120106] | 138 |  | 4.1 |  | > 1000 | 311 |  | 2000
C=CC(=O)Nc1cc(Nc2ncc(Cl)c(Nc3ccc4ccccc4c3)n2)c(OC)cc1N(C)CCNC [CCB4580030, N-((5-((5-chloro-4-(naphthalene-2-ylamino)pyrimidine-2-yl)amino)-4-methoxy-2-(methyl(2-methylamino)ethyl)amino)phenyl)acrylamide] | 7.8 |  | 2.2 |  | 3.1 |  |  | 
C=CC(=O)Nc1cccc(Nc2nc(Nc3ccc(N4CCN(C(C)=O)CC4)cc3OC)ncc2C(F)(F)F)c1 [CO1686, reference compound] | 1320 |  |  |  |  | 215 |  | 972
